Laboratory results: patent US20250290065A1, “METHODS FOR MODULATING HUMAN L1 RETROTRANSPOSONS RNA AND COMPOSITIONS FOR USE THEREIN” (King Abdullah University of Science and Technology, priority 2019, published 2025)
Entries after “also recorded” stand apart in the source; their conditions may differ.

How the values were obtained:
[1] = tested on: Line 1 retrotransposition; settings: Nishikawa et al. 2018; Banuelos-Sanchez et al. 2019; cited from earlier work
L1 promoter = settings: Terasaki, et al., PLoS One 2013; cited from earlier work
[2] = tested on: human mesenchymal stem cells; test: Cell cycle analysis (Propidium Iodide, FACS); assay type: cell-based; settings: 3TC vs DMSO; data not shown
Protocol: 2×105 MSCs were trypsinized for 5 min at 37° C., washed with PBS and 2% BSA, passed through a […] strainer (#352350, Corning) and then fixed at −20° C. for 30 min in 70% ethanol. After washing with PBS and 4% BSA, cells were resuspended in PBS and incubated 1 hour at 37° C. with RNAse. Cells were then washed and resuspended in 100 μl of Flow Cytometry Staining Buffer (R&D System, #FC001). 10 μl of 1 mg/ml Propidium iodide (PI) staining solution (#P3566) was added to the single cell solution, gently mixed, and incubated 5 min in the dark. Cell cycle analysis was performed on BD FACSCanto II Flow Cytometry System, using BD FACSDiva Software.

[3] = tested on: differentiating osteoblasts; test: Mineralization assay (OsteoImage) in differentiating osteoblasts; assay type: cell-based, human; settings: 150 μM, after 21 days of differentiation, vs DMSO
Protocol: Bone marrow-derived MSC (#C-12974, PromoCell GmbH, Heidelberg, Germany) were grown in 0.1% gelatin solution (#07903, StemCell)-coated plates until passage 4. Growth medium (#PT-3001, Lonza) was changed every 3 days. Osteogenic differentiation was induced by replacing growth medium with Osteogenic Differentiation Medium (#PT-3002, Lonza) on 70% confluent cells seeded on 1:50 Matrigel (#356237, Corning)-coated plates. Adipogenic differentiation was induced by three cycles of induction/maintenance Adipogenic Differentiation Medium (#PT-3004, Lonza) on post-confluent cells seeded on 1:50 MatMatrigel (#356237, Corning)-coated plates.
(§1) Cells were washed in PBS and fixed with 4% Paraformaldehyde for 15 minutes. Mineralization was assessed by using the OsteoImage Mineralization Assay (#LOPA503, Lonza) according to manufacturer's indication. Mineralization was quantitatively assayed with GloMax discover plate reader (Promega) with appropriate excitation (492)/emission (520) wavelengths.

[4] = tested on: OP patients derived MSC differentiating to osteoblasts; test: L1 RNA transfection of MSC from osteoporotic patients, bone matrix quantification; assay type: cell-based, human
Protocol: as §1

[5] = tested on: BAX, IFNa2, IFNb1, IFI44 expression in MSC
Protocol: L1 RNA was transfected in differentiating osteoblasts at day 7 using Lipofectamine™ MessengerMAX™ (Invitrogen, USA, Cat. No. LMRNA003) with a modified protocol were a lower RNA amount (10 times less) than recommended was transfected. RFP mRNA (System Bioscience, USA, Cat. No. MR800A-1) was used as negative control.
Real time quantitative polymerase chain reaction (qPCR) was performed with 7900HT Fast Real Time PCR system (Applied Biosystems). Each sample was analyzed in triplicate and normalized with the endogenous control, Ribosomal Protein L13A (RPL13A) for osteogenesis and Tata Binding Protein (TBP) for adipogenesis, for cDNA input concentration. No template and no RT were included as negative controls. For each 15 μl reaction, 10 ng (1 ng for L1) of cDNA was mixed with 1 μM specific primers mix and 7.5 μl of Sybr Select Master mix (#4472908, Life Technologies). The reaction was incubated at 95° C. for 10 minutes, followed by 40 cycles of denaturation at 95° C. for 15 seconds, annealing at 60° C. for 30 seconds and elongation at 72° C. for 30 seconds. Ct values were calculated by 7900HT Fast Real Time PCR RQ manager software (Applied Biosystems) and then normalized as DCt between the gene of interest and the endogenous calibrator. […] In all primer pairs each primer matches a different exon. Amplicons length was 80-130 nucleotides.

Compound	L1 promoter activity (L1 promoter)	other results
Nc1nc(=O)n([C@@H]2CS[C@H](CO)O2)cc1F [emtricitabine]		Line 1 retrotransposition [1]: inhibit Line 1 retrotansposition
c1ccc2c(c1)cc1ccc3cccc4ccc2c1c34 [benzo[a]pyrene]	induce L1 promoter activity	
Nc1ccn([C@@H]2CS[C@H](CO)O2)c(=O)n1 [Lamivudine 3TC, Lamivudine]		cell cycle analysis and apoptotic cell number in sub-G1 peak [2]: no significant differences; mineral deposition (mineralization) [3]: −69%; mineral deposition (mineralization) ([3]; listed as 3TC): −60%
CC1=C(CC(=O)O)c2cc(F)ccc2/C1=C\c1ccc([S+](C)[O-])cc1 (centres unmarked) [sulindac]	induce L1 promoter activity	
NC(=O)c1ccccc1O [salicylamide]	induce L1 promoter activity	
CC[C@@]1(O)C(=O)OCc2c1cc1n(c2=O)Cc2cc3ccccc3nc2-1 [camptothecin]	induce L1 promoter activity	
C=C1[C@@H](C)[C@H]2[C@H](Cc3ccccc3)NC(=O)[C@]23[C@H](OC(C)=O)/C=C/[C@@](C)(O)C(=O)[C@@H](C)C/C=C/[C@H]3[C@@H]1O [cytochalasin D]	induce L1 promoter activity	
COc1cc(CNC(=O)CCCC/C=C/C(C)C)ccc1O [Capsaicin]		Line 1 retrotransposition [1]: inhibit Line 1 retrotansposition
O=C(O)c1cc(-c2ccc(F)cc2F)ccc1O [diflunisal]	induce L1 promoter activity	
CC[C@]1(O)C[C@@H]2CN(CCc3c([nH]c4ccccc34)[C@@](C(=O)OC)(c3cc4c(cc3OC)N(C)[C@H]3[C@@](O)(C(=O)OC)[C@H](OC(C)=O)[C@]5(CC)C=CCN6CC[C@]43[C@@H]65)C2)C1 [vinblastine]	induce L1 promoter activity	
L1 RNA: Cy5-conjugated synthetic full-length human L1 mRNA, in vitro transcribed, capped, 5-methyl-C, Pseudo-U substituted, polyadenylated (TriLink)		osteoblasts maturation ([4]; in vitro differentiating MSC, all patients tested): greatly enhanced osteoblasts maturation; bone matrix production / mineralized matrix ([4]; transfection at day 7 of osteogenesis, three days after transfection, 4 OP patients, vs random RNA): restored bone matrix production; also recorded: fully rescued the production of mineralized matrix; induction of apoptosis and Interferon response genes [5]: neither apoptosis nor Interferon response genes were induced
O=C1NC(=S)NC(=O)C1C(=O)Nc1ccccc1 [merbarone]	induce L1 promoter activity	
O=C(O)c1ccccc1Nc1cccc(C(F)(F)F)c1 [flufenamic acid]	induce L1 promoter activity	
